Test results taken from ChEMBL document CHEMBL5058564, “EUbOPEN Chemogenomics Library 2 (Incucyte)” (2022).
Where a SMILES comes first, the peptide text is derived from it. [ ]: non-standard residue; d: D form. The star is where a group is joined. dPhe(4-NHCONH2) = NC(=O)Nc1ccc(C[C@@H](N)C(=O)O)cc1; Dihydroorotyl(S) = O=C1C[C@@H](C(=O)*)NC(=O)N1; dPhe(4-Cl) = N[C@H](Cc1ccc(Cl)cc1)C(=O)O; Phe(4-NH2) = Nc1ccc(C[C@H](N)C(=O)O)cc1; d2Nal = N[C@H](Cc1ccc2ccccc2c1)C(=O)O; Lys(iPr) = CC(C)NCCCC[C@H](N)C(=O)O; d3Pal = N[C@H](Cc1cccnc1)C(=O)O

Tests used:
Type in all cases: toxicity, cell-based
[1] = system: U2OS; test: Incucyte cell viability with U2OS; conditions: human, 10 µM, compound concentration 10 uM
[2] = system: Fibroblast; test: Incucyte cell viability with human fibroblast; conditions: 10 µM, compound concentration 10 uM
[3] = system: HEK-293T; test: Incucyte cell viability with HEK293T; conditions: human, 10 µM, compound concentration 10 uM
[4] = 0 h, replicate number 1, timepoint 0 hours
[5] = 0 h, replicate number 2, timepoint 0 hours
[6] = 6 h, replicate number 1, timepoint 6 hours
[7] = 6 h, replicate number 2, timepoint 6 hours
[8] = 12 h, replicate number 1, timepoint 12 hours
[9] = 12 h, replicate number 2, timepoint 12 hours
[10] = 18 h, replicate number 1, timepoint 18 hours
[11] = 18 h, replicate number 2, timepoint 18 hours
[12] = 24 h, replicate number 1, timepoint 24 hours
[13] = 24 h, replicate number 2, timepoint 24 hours
Note: unitless GR value; below 1 slowed growth and below 0 cell loss.

Compound | Growth Rate [1, 4] | Growth Rate [1, 5] | Growth Rate [1, 6] | Growth Rate [1, 8] | Growth Rate [1, 10] | Growth Rate [1, 12] | Growth Rate [2, 6] | Growth Rate [2, 7] | Growth Rate [2, 9] | Growth Rate [2, 10] | Growth Rate [2, 12] | Growth Rate [2, 13] | Growth Rate [3, 6] | Growth Rate [3, 8] | Growth Rate [3, 10] | Growth Rate [3, 12] | Growth Rate [2, 5] | Growth Rate [3, 4] | Growth Rate [3, 5] | Growth Rate [2, 4] | other results
CC(C)Oc1ccc(Cc2ccc(NC3=NCCN3)cc2)cc1 | -0.1 | 0.45 | 0.26 | 0.74 | 0.82 | 0.84 | 0.07 | -0.09 | 0.19 | 0.28 | 0.42 | 0.46 | -0.2 | 0.03 | 0.16 | 0.24 | – | – | – | – | Growth Rate [1, 7]: 0.51; Growth Rate [1, 9]: 0.75; Growth Rate [1, 11]: 0.91; Growth Rate [1, 13]: 0.95; Growth Rate [2, 8]: 0.4; Growth Rate [2, 11]: 0.64; Growth Rate [3, 7]: -0.01; Growth Rate [3, 9]: 0.1; Growth Rate [3, 11]: 0.27; Growth Rate [3, 13]: 0.21
CCNC(=O)[C@H]1O[C@@H](n2cnc3c(N)nc(NCCc4ccc(CCC(=O)O)cc4)nc32)[C@H](O)[C@@H]1O.Cl | -0.07 | – | 0 | 0.64 | 0.96 | – | 0.96 | 0.47 | 0.63 | – | – | – | 0.95 | – | – | – | 0.98 | 0.05 | 0.1 | – | Growth Rate [1, 7]: 0.99; Growth Rate [1, 13]: 0.97
NCCc1c[nH]c2ccc(C(N)=O)cc12.O=C(O)/C=C\C(=O)O | -0.1 | 0.34 | 0.87 | – | 0.89 | 0.83 | – | – | – | – | – | – | 0.61 | 0.96 | 0.9 | 0.9 | -0.08 | 0.4 | -0.18 | 0.89 | Growth Rate [2, 11]: 0.95
C[N+]1(C)[C@@H]2C[C@@H](OC(=O)C(O)(c3cccs3)c3cccs3)C[C@H]1[C@@H]1O[C@@H]12.O.[Br-] [TIOTROPIUM BROMIDE] | 0.04 | 0.9 | 0.61 | 0.64 | 0.68 | 0.86 | -0.47 | – | 0.99 | 1 | 0.95 | 0.7 | 0.86 | 0.87 | 0.7 | 0.79 | -0.05 | 0.54 | -0.14 | – | Growth Rate [1, 7]: 0.93; Growth Rate [2, 8]: 0.71; Growth Rate [2, 11]: 0.83; Growth Rate [3, 11]: 0.99; Growth Rate [3, 13]: 0.91
Cl.Clc1cccc(Cl)c1NC1=NCCN1 [CLONIDINE HYDROCHLORIDE] | – | 0.55 | 0.87 | – | 1 | – | 0.94 | 0.45 | 0.46 | – | 0.9 | 0.47 | 0.49 | 0.74 | 0.59 | 0.85 | – | 0.99 | 0.43 | 0.82 | Growth Rate [1, 7]: 0.91; Growth Rate [2, 11]: 0.62; Growth Rate [3, 9]: 0.54; Growth Rate [3, 11]: 0.58; Growth Rate [3, 13]: 0.63
CO[C@H]1CC[C@@H](C(=O)c2ccc3nc4c(cc3c2)CCCO4)CC1 | – | – | -0.12 | 0.27 | 0.36 | 0.74 | – | 0.07 | 0.87 | 0.79 | 0.48 | – | 0.72 | 0.84 | 0.59 | 0.73 | – | – | – | 0.96 | Growth Rate [1, 7]: 0.55; Growth Rate [1, 9]: 0.67; Growth Rate [1, 11]: 0.74; Growth Rate [1, 13]: 0.78
CC(=O)N[C@H](Cc1ccc2ccccc2c1)C(=O)N[C@H](Cc1ccc(Cl)cc1)C(=O)N[C@H](Cc1cccnc1)C(=O)N[C@@H](CO)C(=O)N[C@@H](Cc1ccc(NC(=O)[C@@H]2CC(=O)NC(=O)N2)cc1)C(=O)N[C@H](Cc1ccc(NC(N)=O)cc1)C(=O)N[C@@H](CC(C)C)C(=O)N[C@@H](CCCCNC(C)C)C(=O)N1CCC[C@H]1C(=O)N[C@H](C)C(N)=O [DEGARELIX] (Ac-[d2Nal][dPhe(4-Cl)][d3Pal]S[Phe(4-NH2)](Dihydroorotyl(S))[dPhe(4-NHCONH2)]L[Lys(iPr)]P[dA]-NH2) | -1 | – | – | – | – | – | – | – | – | – | – | – | – | – | – | – | -0.9 | -0.99 | – | -1 | –
CCNC(=O)c1cc2c(-c3cc(C(C)(C)O)ccc3Oc3c(C)cc(F)cc3C)cn(C)c(=O)c2[nH]1 [ABBV-744] | – | – | – | – | – | -0.17 | 0.41 | 0.71 | – | 0.87 | 0.75 | 0.87 | – | – | 0.82 | 0.69 | – | 0.5 | 0.16 | 0.23 | Growth Rate [2, 8]: 0.68; Growth Rate [3, 13]: 0.71
O=C(NC[C@@H]1[C@H]2CN(C(=O)OCc3cc(C(F)(F)F)cc(C(F)(F)F)c3)C[C@@H]12)c1ccc2[nH]nnc2c1 [BI 2545] | – | 0.37 | – | 0.93 | 0.99 | – | -0.83 | -0.59 | -0.1 | -0.55 | -0.35 | 0.57 | 0.33 | 0.61 | 0.65 | 0.64 | – | – | – | – | Growth Rate [2, 8]: -0.64; Growth Rate [2, 11]: 0.22; Growth Rate [3, 7]: 0.67; Growth Rate [3, 9]: 0.92; Growth Rate [3, 13]: 0.88
CCOc1nc2cccc(C(=O)O)c2n1Cc1ccc(-c2ccccc2-c2nnn[nH]2)cc1 | – | – | – | 0.85 | 0.58 | – | 0.77 | 0.71 | 0.56 | 0.8 | 0.89 | 0.45 | – | – | – | – | 0.54 | 0.86 | 0.52 | – | Growth Rate [1, 9]: 0.99; Growth Rate [3, 7]: 0.94
CSc1cc2c(cc1C(F)(F)F)N(C(=O)Nc1cccnc1)CC2 | – | – | – | – | 0.84 | 0.99 | – | – | – | – | – | – | 0.82 | 0.63 | 0.75 | 0.64 | 0.46 | – | -0.27 | -0.3 | Growth Rate [1, 9]: 0.94; Growth Rate [1, 13]: 0.93
Cl.O=C(O)c1cc(-c2ccc(C3CCNCC3)cc2)c2ccc(-c3ccc(C(F)(F)F)cc3)cc2c1 | – | – | 0.77 | 0.79 | 0.6 | 0.6 | -0.7 | 0.67 | 0.42 | -0.01 | 0.06 | 0.23 | – | 0.71 | 0.29 | 0.2 | -0.95 | -0.99 | -0.98 | -0.16 | Growth Rate [1, 7]: 0.7; Growth Rate [1, 9]: 0.48; Growth Rate [1, 11]: 0.48; Growth Rate [1, 13]: 0.44; Growth Rate [2, 8]: -0.12; Growth Rate [2, 11]: 0.43; Growth Rate [3, 11]: 0.68; Growth Rate [3, 13]: 0.49
O=C(Nc1cc(C(F)(F)F)ccc1N1CCCCC1)c1ccncc1 | -0.22 | 0.81 | 0.54 | 0.85 | 0.87 | 0.81 | -0.18 | – | – | 0.65 | 0.59 | 0.83 | – | – | – | – | 0.62 | 0.08 | 0.52 | – | Growth Rate [1, 7]: 0.75; Growth Rate [1, 9]: 0.76; Growth Rate [1, 11]: 0.99; Growth Rate [2, 8]: 0.52; Growth Rate [3, 9]: 0.9; Growth Rate [3, 13]: 0.95
COCCn1c(C)c(C)s/c1=N\C(=O)C1C(C)(C)C1(C)C | 0.47 | -1 | – | – | 1 | 0.98 | – | – | – | – | – | – | – | – | – | – | 0.2 | 0.71 | – | 0.65 | Growth Rate [1, 11]: 0.93; Growth Rate [1, 13]: 0.97; Growth Rate [3, 7]: 0.77; Growth Rate [3, 9]: 0.76
